# Tests used:
# [1] = system: U118 MG (human glioblastoma/astrocytoma) cells; test: Proliferation assay (CellTiter-Glo), U118 MG; assay type: cell-based; conditions: U-118-MG, n = 4
# Method: (§1) SK-N-DZ (human neuroblastoma; ATCC# CRL-2149) or U118 MG (human glioblastoma/astrocytoma; ATCC# HTB-15) or U87 MG (human glioma; ATCC# HTB-14) or H4 (human neuroglioma; ATCC# HTB 178) cells are cultivated under standard conditions (RPMI 1640/Glutamax 2 mM/glucose 2 g/l/SoBicarbonate 2 g/1/10% FCS; 37° C. in 5% CO2 in a humid incubator). Cells are suspended using Accutase (PAA) and seeded at 1000 cells/Well in 100 μL medium/well in a 96-well plate (Greiner Kat. Nr. 655073). The test compound is added 24 Stunden after seeding. Commercial assays (CellTiter-Glo® Luminescent Cell Viability Assay; Promega Kat. Nr. G7571) are used 72 later according to the manufacturers instructions. IC50 is calculated using GraphPad Prism.
# (§2) Compounds are solved in 100% DMSO and diluted 1:20 in medium before used diluted 1:10 in the test.
# [2] = system: SK-N-DZ (human neuroblastoma) cells; test: Proliferation assay (CellTiter-Glo), SK-N-DZ; assay type: cell-based; conditions: 72 after compound addition, n = 4
# Method: as §1, §2
# [3] = system: U87 MG (human glioma) cells; test: Proliferation assay (CellTiter-Glo), U87 MG; assay type: cell-based; conditions: U-87 MG, n = 2
# Method: as §1, §2
# [4] = system: H4 (human neuroglioma) cells; test: Proliferation assay (CellTiter-Glo), H4; assay type: cell-based; conditions: n = 1
# Method: as §1, §2
# [5] = Crossing blood brain barrier in mice; assay type: in vivo, Male Ncr nude mice; conditions: 200 mg/kg orally for 14 days
# Method: Male Ncr nude mice (n=3/time point) is treated for 14 days orally with a therapeutically relevant dose of example 153 (200 mg/kg) or a vehicle control (time: Oh). Daily treatment with a high dose like this is necessary to effectively treat subcutaneously transplanted tumors in these mice. After treatment, mice are sacrified at indicated time points, blood and brain tissue is removed and analysed. The method is as described above in example 2 under “Stability in rat and human plasma”. […] Mean brain concentrations are indicated as absolute concentration and relative to plasma concentration at similar time points (from the same experiment) in the table below.
# [6] = Stability in buffer at different pH-values; assay type: physicochemical
# Method: To determine the stability of test compounds at different pH-values 0.3 mg of the dry compound is dissolved in 0.5 ml of acetonitrile and the sample is sonified for 10 seconds. Then buffer solutions are added and the samples are sonified again.
# pH 2: 0.03 M citric acid/0.0082 M hydrochloric acid/0.061 M sodium chloride pH 3: 0.04 M citric acid/0.021 M sodium hydroxide/0.06 M sodium chloride pH 4: 0.056 M citric acid/0.068 M sodium hydroxide/0.044 M Sodium chloride pH 5: 0.096 M citric acid/0.2 M sodium hydroxide pH 7: 0.029 M sodium hydroxide solution/0.05 M potassium dihydrogen phosphate pH 10: 0.013 M sodium tetraborate/0.018 M sodium hydroxide
# The test compound concentrations in solution is analyzed by HPLC every hour during 24 hours at 37° C.
# Agilent 1100 with DAD (G1314A), binary pump (G1312A), autosampler (G1329A), column thermostat (G1316A), thermostat (G1330A), Column: Kromasil 100 C18/60×2.1 mm/3.5 μm, Column temperature: 37° C., Eluent A: Water+5 ml perchloric acid/1, Eluent B: Acetonitrile, Gradient: 0-1.0 min 98% A, 2% B; 1.0-9.0 min 2% A, 98% B; 9.0-13.0 min 2% A, 98% B; 13.0-13.5 min 98% A, 2% B; 13.5-15.0 98% A, 2% B, Flow rate: 0.75 ml/min, Detection: 210 nm
# [7] = Stability in human plasma; assay type: in vitro ADME; conditions: within 1 hour
# [8] = Solubility in aqueous 5% dextrose; assay type: physicochemical; conditions: for solubility thermodynamic at 24 h: saline or isotonic, thermodynamic from solid, 5% Dextrose
# Method: The test compound is dissolved in an aqueous solution of 5% dextrose adjusted to the respective pH with 1n HCl. After shaking at room temperature for 24 h the probe is subjected to an ultra centrifugation process at 224000 g for 30 min. DMSO is added to the supernatant and the content of test compound is determined and quantified by HPLC employing a two point calibration curve of the test compound in DMSO.
# HPLC Method: Agilent 1100 with DAD (G1315A), quat. Pump (G1311A), Autosampler CTC HTS PAL, Degaser (G1322A) and column thermostate (G1316A); Column: Zorbax Extend-C18 3.5μ; temperature: 40° C.; Eluent A: Water+5 ml Perchloric acid/1; Eluent B: Acetonitrile; flow rate: 0.7 mL/min; Gradient: 0-0.5 min 98% A, 2% B; Rampe: 0.5-4.5 min 10%, A 90% B; 4.5-6 min 10% A, 90% B; Rampe: 6.5-6.7 min 98% A, 2% B; 6.7-7.5 min 98% A, 2% B.
# Stability in rat plasma = assay type: in vitro ADME; conditions: within 1 hour
structure (smiles),measurement,setting,value
"CS(=O)(=O)NCc1cccc(-c2ccc3c(N)c(C(=O)c4ccc(Cl)cc4Cl)oc3c2)c1 [Example 153, N-{3-[3-amino-2-(2,4-dichlorobenzoyl)-1-benzofuran-6-yl]benzyl}methanesulfonamide]",IC50,[1],120 nM
same,IC50,[2],110 nM
same,IC50,[3],320 nM
same,IC50,[4],170 nM
same,crossing of the blood brain barrier,[5],crosses the blood brain barrier
same,brain concentration % of Plasma concentration,[5]; 0.167 h,9-19%
same,brain concentration % of Plasma concentration,[5]; 0.5 h,17-18%
same,brain concentration % of Plasma concentration,[5]; 1.5 h,12-90%
same,concentration at 0.167 h,"[5]; male, Ncr nude, mouse, brain, po, 0.167 h",600 ng/mL
same,concentration at 0.5 h,"[5]; male, Ncr nude, mouse, brain, po, 0.5 h",1400 ng/mL
same,concentration at 1.5 h,"[5]; male, Ncr nude, mouse, brain, po, 1.5 h",1000 ng/mL
"CC(C)[C@H](N)C(=O)N(Cc1cccc(-c2ccc3c(N)c(C(=O)c4ccc(Cl)cc4Cl)oc3c2)c1)S(C)(=O)=O.Cl [Example 366, N-{3-[3-amino-2-(2,4-dichlorobenzoyl)-1-benzofuran-6-yl]benzyl}-N-(methylsulfonyl)-L-valinamide, hydrochloride]",Amount of remaining compound,"[6]; buffer pH 2, after 24 h at 37° C.",100%
same,Amount of remaining compound,"[6]; buffer pH 3, after 24 h at 37° C.",100%
same,Amount of remaining compound,"[6]; buffer pH 4, after 24 h at 37° C.",94%
same,Amount of remaining compound,"[6]; buffer pH 5, after 24 h at 37° C.",58%
same,Amount of remaining compound,"[6]; buffer pH 7, after 24 h at 37° C.",4%
same,Amount of remaining compound,"[6]; buffer pH 10, after 24 h at 37° C.",2%
same,cleaved in plasma,[7],more than 90%
same,degradation during solubility determination,"[8]; 5% dextrose, 24 h room temperature",no degradation has been observed
same,solubility thermodynamic at 24 h,"[8]; aqueous 5% dextrose solution, pH 3, 24 h room temperature",360 µg/mL
same,solubility thermodynamic at 24 h,"[8]; aqueous 5% dextrose solution, pH 4, 24 h room temperature",350 µg/mL
same,cleaved in plasma,Stability in rat plasma,more than 90%
"CS(=O)(=O)NCc1cccc(-c2ccc3c(N)c(C(=O)c4ccc(Cl)cc4Cl)oc3c2)c1 [N-{3-[3-amino-2-(2,4-dichlorobenzoyl)-1-benzofuran-6-yl]benzyl}methanesulfonamide]",solubility at 24 h,"[8]; aqueous 5% dextrose solution, parent compound, pH not stated",< 0.1 µg/mL

# Source: patent US20100125073A1, “BENZOFURAN AND BENZOTHIOPHENE DERIVATIVES USEFUL IN THE TREATMENT OF CANCERS OF THE CENTRAL NERVOUS SYSTEM” (priority 2006, published 2010)
